Laboratory results taken from patent publication US10695333B2 (NOVARTIS AG, priority 2017, dated 2020).
Values joined by “and” are separate entries in the source; they are usually repeats but may differ in a detail not shown here. Identical values can stand only once. Marks after values point to notes of the source that are not given here.

Assays:
MCF-7 xenograft [1] = assay: LSZ102 with alpelisib in orthotopic MCF-7 breast cancer model in mice; assay type: in vivo, mouse; conditions: Day 62
MCF-7 xenograft [2] = assay: Orthotopic MCF-7 xenograft model in NSG mice; assay type: in vivo, mouse; conditions: for Tumor response in words: LSZ102 20 mg/kg QD, tamoxifen 60 mg/kg, fulvestrant 5 mg/mouse
Method: Mice were supplemented with estradiol (0.72 mg estradiol/90-day release pellets) to further support MCF-7 tumor growth several days prior to cell implantation.

HBRX1298 xenograft = assay: ER+ primary breast cancer model HBRX1298 in NSG mice; assay type: in vivo, mouse; conditions: Day 63
Method: HBRX1298 tumors were established in NSG female mice by injection of a tumor brei into the inguinal mammary fat pad area. Mice were implanted with 0.72 mg estradiol/90-day release pellets several days prior to cell implantation. […] The 80 mg/kg QD dose inhibited tumor volumes close to the extent observed in mice with estradiol pellet removal (% ΔT/ΔC=32% and 21%, respectively; p<0.05).

MCF-7 xenograft [3] = assay: Dose fractionation study in mice with MCF-7 xenografts; assay type: in vivo, mouse; conditions: for Tumor response ΔT/ΔC / Tumor response Regression: Day 61
[4] = tested on: ER regulated transcripts GREB1 and PGR; assay: GREB1 and PGR mRNA in MCF-7 tumors after final dose; assay type: in vivo, mouse; conditions: higher dose levels, tumors collected 24 hours after final treatment on day 61, normalized to B2M
Source text: Data is plotted for individual animals and is normalized to expression of beta-2 microglobulin (B2M).

[5] = Phase I/Ib study, safety and tolerability; assay type: in vivo, human
Source text: (§1) Eligible patients, ≥18 years old, have histologically confirmed ER+ breast cancer that has progressed after endocrine therapy for metastatic or locally advanced disease or recurrence while on, or within 12 months of the end of adjuvant treatment with an aromatase inhibitor. […] As of Jul. […] As of Jul. 23, 2018, 13 patients continued ongoing treatment and 3 patients discontinued due to progressive disease.

[6] = tested on: advanced or metastatic ER+ breast cancer; assay: Phase I/Ib study, anti-tumor activity; assay type: in vivo, human
Source text: as §1

clinical = conditions: human, in vivo
Source text: Secondary objectives are to evaluate preliminary anti-tumor activity and looking at overall response rate (ORR), duration of response (DOR), progression-free survival (PFS), disease control rate (DCR), pharmacokinetics (PK) and pharmacodynamics (PD).

[7] = tested on: MCF-7 parental (ER wildtype) cells; assay: cells; conditions: Homo sapiens, MCF7, 168 h, read-out: MCF-7 proliferation Ave IC50, ESR1 WT
Method: Cell viability was determined by CellTiter-Glo (CTG) assay after 7 days of compound treatment. […] IC50 nM values were calculated using the XLfit software and are defined as the inflection point of the fitted inhibition curves.

[8] = tested on: ER target genes GREB1 and PGR; assay: qRT-PCR of ER target genes in MCF-7 WT cells
ERα = target: T1, ERα (Homo sapiens, UniProt P03372); conditions: MCF-7 parental cells, 24 hr treatment
T1 sequence (P03372 1-595): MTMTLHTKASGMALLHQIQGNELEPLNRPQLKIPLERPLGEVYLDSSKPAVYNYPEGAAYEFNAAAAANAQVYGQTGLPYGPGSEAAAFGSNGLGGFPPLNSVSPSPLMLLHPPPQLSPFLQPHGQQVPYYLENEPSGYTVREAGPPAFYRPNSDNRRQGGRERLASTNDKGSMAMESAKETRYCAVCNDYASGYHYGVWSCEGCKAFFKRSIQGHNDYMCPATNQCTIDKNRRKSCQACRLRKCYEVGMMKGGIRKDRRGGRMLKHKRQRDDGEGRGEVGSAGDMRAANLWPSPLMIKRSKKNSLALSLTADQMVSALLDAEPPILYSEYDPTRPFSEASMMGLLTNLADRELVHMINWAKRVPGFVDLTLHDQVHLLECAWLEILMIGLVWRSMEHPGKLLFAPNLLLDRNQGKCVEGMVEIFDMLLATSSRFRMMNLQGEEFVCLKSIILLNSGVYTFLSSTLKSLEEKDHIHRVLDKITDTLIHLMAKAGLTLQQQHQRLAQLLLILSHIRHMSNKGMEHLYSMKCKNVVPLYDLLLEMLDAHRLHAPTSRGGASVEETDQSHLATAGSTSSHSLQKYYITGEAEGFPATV

[9] = All Arm A treatment period patients (N = 73)
[10] = LSZ102 single agent arm (n = 74)
[11] = All LSZ102 single agent arm patients, evaluable n = 72
[12] = 60 mg/kg PO QD x 5 days x QWeek, Day 48

## Cc1nc(NC(=O)N2CCC[C@H]2C(N)=O)sc1-c1ccnc(C(C)(C)C(F)(F)F)c1 [BYL719, reference compound]
MCF-7 xenograft [1]; BYL719 20 mg/kg QD PO
  Tumor response ΔT/ΔC: 38%

## CC(F)(F)c1cc(F)ccc1-c1sc2cc(O)ccc2c1Oc1ccc(/C=C/C(=O)O)cc1 [LSZ102, (E)-3-(4-((2-(2-(1,1-difluoroethyl)-4-fluorophenyl)-6-hydroxybenzo[b]thiophen-3-yl)oxy)phenyl)acrylic acid]
MCF-7 xenograft [2]; 1 mg/kg PO QD, Day 48
  Tumor response ΔT/ΔC: 56%
MCF-7 xenograft [2]; 3 mg/kg PO QD, Day 48
  Tumor response ΔT/ΔC: 51%
MCF-7 xenograft [2]; 10 mg/kg PO QD, Day 48
  Tumor response ΔT/ΔC: 25%
MCF-7 xenograft [2]; 20 mg/kg PO QD, Day 48
  Tumor response ΔT/ΔC: 2.4% and 2* %
MCF-7 xenograft [2]
  Tumor response in words: tumor stasis was achieved and maintained for 48 days
HBRX1298 xenograft; 20 mg/kg PO QD
  Tumor response ΔT/ΔC: 45* %
HBRX1298 xenograft; 80 mg/kg PO QD
  Tumor response ΔT/ΔC: 32%
MCF-7 xenograft [3]; 5 mg/kg PO BID
  Tumor response ΔT/ΔC: 11* %
MCF-7 xenograft [3]; 10 mg/kg PO BID
  Tumor response ΔT/ΔC: −1* %
MCF-7 xenograft [3]; 10 mg/kg PO QD
  Tumor response ΔT/ΔC: 16* %
MCF-7 xenograft [3]; 20 mg/kg PO QD
  Tumor response Regression: 5* %
  Tumor response ΔT/ΔC: −2* %
MCF-7 xenograft [3]; 40 mg/kg PO BID
  Tumor response Regression: 21* %
  Tumor response ΔT/ΔC: −8* %
MCF-7 xenograft [3]; 80 mg/kg PO QD
  Tumor response Regression: 31* %
  Tumor response ΔT/ΔC: −11* %
MCF-7 xenograft [3]; MCF-7 xenografts, FIG. 8A
  Efficacy of QD dosing versus split-dose BID dosing: equivalent efficacy
[4]
  Inhibition of GREB1 and PGR mRNA levels in tumors: stronger inhibition
MCF-7 xenograft [1]; LSZ102 10 mg/kg QD PO, 10 mg/kg
  Tumor response ΔT/ΔC: 13%
[5]; 450 mg QD with food group
  DLT alanine aminotransferase increase, number of patients: one
  DLT aspartate aminotransferase increase, number of patients: one
[5]; 600 mg QD fasted group
  DLT vomiting, number of patients: one
[5]; 900 mg QD fasted group
  DLT diarrhea, number of patients: two
[5]; [9]
  Constipation, G1: 7 (9.6) n (%)
  Constipation, G2: 1 (1.4) n (%)
  Constipation, G3: 0 n (%)
  Decrease appetite, G1: 11 (15.1) n (%)
  Decrease appetite, G2: 2 (2.7) n (%)
  Decrease appetite, G3: 0 n (%)
  Diarrhea, G1: 25 (34.2) n (%)
  Diarrhea, G2: 11 (15.1) n (%)
  Diarrhea, G3: 3 (4.1) n (%)
  Fatigue, G1: 5 (6.8) n (%)
  Fatigue, G2: 3 (4.1) n (%)
  Fatigue, G3: 0 n (%)
  Nausea, G1: 32 (43.8) n (%)
  Nausea, G2: 10 (13.7) n (%)
  Nausea, G3: 2 (2.7) n (%)
  Suspected related AEs, Total, G1: 38 (52.1) n (%)
  Suspected related AEs, Total, G2: 20 (27.4) n (%)
  Suspected related AEs, Total, G3: 7 (9.6) n (%)
  Vomiting, G1: 14 (19.2) n (%)
  Vomiting, G2: 4 (5.5) n (%)
  Vomiting, G3: 1 (1.4) n (%)
[5]; [10]
  Discontinuation due to adverse event: 2 (2.7) n (%)
[5]; oral single agent, doses up to 600 mg QD and up to 300 mg BID
  Tolerability: well tolerated
[5]; single agent Arm A
  Drug-related diarrhea, any grade: 53.4%
  Drug-related nausea, any grade: 60.2%
  Drug-related vomiting, any grade: 26.1%
[5]; single agent Arm A, 1 patient
  Drug-related Grade 3 vomiting: 1.4%
[5]; single agent Arm A, 2 patients
  Drug-related Grade 3 nausea: 2.7%
[5]; single agent Arm A, 3 patients
  Drug-related Grade 3 diarrhea: 4.1%
[5]; single agent, all dose groups, four patients
  Dose limiting toxicities (DLTs), patients: 5.9%
[5]; single agent, all gastrointestinal toxicities
  Patients requiring dose reduction due to AEs: seven
[6]; [11]
  Complete response (CR): 0 n (%)
  Disease control rate (DCR): 27 (37.5%) n (%)
  Non-CR/Non-PD: 7 (9.7) n (%)
  Overall response rate (ORR): 1 (1.4) n (%)
  Partial response (PR): 1 (1.4) n (%)
  Progressive disease (PD): 40 (55.6) n (%)
  Response unknown: 6 (8.3) n (%)
[6]; [10]
  Discontinuation due to progressive disease: 59 (79.7) n (%)
[6]; single-agent LSZ102
  Disease control rate: 37.5%
clinical
  Increase in exposure (AUC) with high fat, high calorie meal compared to fasted: ~2 fold
clinical; po
  Exposure versus dose: dose-proportional increases in LSZ102 exposure
  Tmax: 2 to 3 h
  half-life: 3.1 to 5.6 h
[7]
  IC50: 5.2 nM
[8]
  ESR1 mRNA levels: not significantly reduced
  mRNA expression of GREB1 and PGR: dose response inhibition

## CC/C(=C(\c1ccccc1)c1ccc(OCCN(C)C)cc1)c1ccccc1 [Tamoxifen, reference compound]
MCF-7 xenograft [2]; [12]
  Tumor response Regression: 1* %
  Tumor response ΔT/ΔC: −0.8* %
MCF-7 xenograft [2]
  Tumor response in words: tumor stasis
HBRX1298 xenograft; 40 mg/kg PO QD
  Tumor response ΔT/ΔC: 59%
MCF-7 xenograft [3]; 60 mg/kg PO 5QW
  Tumor response Regression: 11* %
  Tumor response ΔT/ΔC: −4* %

## C[C@]12CC[C@@H]3c4ccc(O)cc4C[C@@H](CCCCCCCCC[S+]([O-])CCCC(F)(F)C(F)(F)F)[C@H]3[C@@H]1CC[C@@H]2O (some centres unmarked) [Fulvestrant, reference compound]
MCF-7 xenograft [2]; 5 mg/mouse SC QWeek, Day 48
  Tumor response ΔT/ΔC: 24* %
MCF-7 xenograft [2]
  Tumor response in words: suppression of growth
HBRX1298 xenograft; 5 mg/mouse SC QWeek
  Tumor response ΔT/ΔC: 48* %
MCF-7 xenograft [3]; 5 mg/mouse SC QWeek
  Tumor response ΔT/ΔC: 18* %
ERα
  ER protein levels (immunoblot): significantly reduce ER protein levels
[7]
  IC50: 2.6 nM
